Measurements as given in PubChem BioAssay AID1347039 (Raney Lab, University of Arkansas for Medical Sciences …, 2019).
Results filed as inconclusive are left out. The source made the active and inactive calls.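 How the source made its calls: active means remaining helicase activity under 10% at 30 micromolar; inconclusive means remaining helicase activity between 10% and 50%; inactive means remaining helicase activity over 50%.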

system: Hepatitis C virus NS3 helicase; experiment: inhibition of NS3 duplex DNA unwinding by HCV helicase – biochemical, fluorescence, FAM-quenched DNA substrate, full-length NS3, primary screen (AID 1347039); settings: recombinant NS3 DNA unwinding, FAM fluorescence rate; at 30 µM; active compounds read low

| SMILES | remaining helicase activity |
| --- | --- |
| COc1ccc(C(=O)n2cc(C=C3C(=O)NC(=S)NC3=O)c3ccccc32)cc1 | 54.6% (inactive) |
| O=C1NC(=S)NC(=O)C1=Cc1cn(C(=O)c2ccccc2)c2ccccc12 | 56.3% (inactive) |
| O=C1NC(=S)NC(=O)C1=Cc1cn(C(=O)c2ccccc2Br)c2ccc(Br)cc12 | 53.2% (inactive) |
| O=C1NC(=S)NC(=O)C1=Cc1cn(C(=O)c2cccc3ccccc23)c2ccccc12 | 22.3% (inactive) |
| O=C1NC(=S)NC(=O)C1=Cc1cn(C(=O)c2ccccc2)c2ccc(Cl)cc12 | 73.2% (inactive) |
| COc1ccc(C(=O)n2cc(C=C3C(=O)NC(=S)NC3=O)c3cc(OC)ccc32)cc1 | 55.2% (inactive) |
| COc1ccc2c(c1)c(C=C1C(=O)NC(=S)NC1=O)cn2C(=O)c1ccccc1 | 79.2% (inactive) |
| O=C1NC(=S)NC(=O)C1=Cc1cn(C(=O)c2ccc(F)cc2)c2ccccc12 | 51.1% (inactive) |
| O=C1NC(=S)NC(=O)C1=Cc1cn(C(=O)c2ccc3ccccc3c2)c2ccc(Cl)cc12 | 73.3% (inactive) |
| COc1ccc(C(=O)n2cc(C=C3C(=O)NC(=S)NC3=O)c3cc(Cl)ccc32)cc1 | 53.2% (inactive) |
| COc1ccc(C(=O)n2cc(C=C3C(=O)NC(=S)NC3=O)c3cc(Br)ccc32)cc1 | 61.9% (inactive) |
| O=C1NC(=S)NC(=O)C1=Cc1cn(C(=O)c2ccccc2Br)c2ccccc12 | 63.5% (inactive) |
| O=C1NC(=S)NC(=O)C1=Cc1cn(C(=O)c2ccc3ccccc3c2)c2ccccc12 | 0% |
| COc1ccc2c(c1)c(C=C1C(=O)NC(=S)NC1=O)cn2C(=O)c1ccc2ccccc2c1 | 6.3% |
| O=C1NC(=S)NC(=O)C1=Cc1cn(C(=O)c2cccc3ccccc23)c2ccc(Cl)cc12 | 33.4% (inactive) |
| COc1ccc2c(c1)c(C=C1C(=O)NC(=S)NC1=O)cn2C(=O)c1cccc2ccccc12 | 0% |
| O=C1NC(=S)NC(=O)C1=Cc1cn(C(=O)c2ccccc2Br)c2ccc(Cl)cc12 | 83.8% (inactive) |
